For 27 compounds, IC50 results are on record in US20220249454A1, “INHIBITORS OF MONOCARBOXYLATE TRANSPORTERS FOR CANCER IMMUNOTHERAPY” (NIROGY THERAPEUTICS, INC., priority 2021, published 2022).

For the test, the system named is panel of solid and haemotological tumor cell lines (e.g., Hs578t, SiHa, MDA-MB-231). Put plainly: MTS cell proliferation assay (cytotoxicity). The format is cell-based. The conditions noted are these: Table 2 (Group 2), 72-96 hours, 10 mM lactate medium or RPMI 1640 medium, cell line not stated. The procedure: The anti-proliferation effect of MCT inhibition was investigated across a panel of solid and haemotological tumor cell lines. Cells were routinely cultured in their appropriate growth medium. On day 1, between 10,000-25,000 cells/well (e.g., Hs578t: 15,000 cells/well, SiHa: 10,000 cells/well, and MDA-MB-231: 25,000 cells/well) were plated into 96-well plates. 100 μL. of phosphate buffered saline solution was added to the external wells to prevent media evaporation. Plates were incubated in growth medium overnight at 37° C. in the presence of 5% CO2. On day 2, dry weight compound stocks were dissolved to a concentration of 10 mM in 100% DMSO. Compounds were further diluted in the assay medium; 10 mM lactate medium (without glucose, pyruvate, and glutamine) or RPMI 1640 medium (without pyruvate and glutamine) to generate a final dose range of 1 nM to 10 μM. Growth medium in the 96-well plate was replaced with the assay medium (10 mM lactate medium or RPMI medium or appropriate medium), and compounds were added to each well in the plate at different concentrations via serial dilution or pre-prepared solutions in assay medium. Plates were then incubated at 37° C. in the presence of 5% CO2 for a further 72-96 hours. On day 2-5, assay media was changed to 100 uL of DMEM/F12 and 20 μL of CellTiter 96 AQ MTS reagent was added to each well and the plate was returned to the incubator for 1-2 hours. MTS is bioreduced by NADPH or NADH produced by dehydrogenase enzymes in metabolically active cells into a coloured formazan product that is soluble in tissue culture medium. The amount of coloured formazan product is directly proportional to the number of living cells in culture. The absorbance of the plates was read on a Spectramax M5e plate reader using […] measurement wavelength. Dose response curves were plotted and IC50 values were calculated using GraphPad Prism. The IC50 value is equivalent to the concentration of compound that causes 50% inhibition of growth calculated from the compound treated signal to the vehicle treated signal.
Cytotoxicity of selected compounds is listed in Table 1, where IC50: A=<1 uM; B=1-10 uM; C=>10 uM; and NT=Not Tested.
For orientation: Formazan colour is commonly taken as a measure of viable cells.
Regarding `CCOc1cccc(NC(=O)N(C)c2cc3oc(=O)c(C(=O)O)cc3s2)c1` [Compound 2.009, 2-(3-(3-ethoxyphenyl)-1-methylureido)-5-oxo-5H-thieno[3,2-b]pyran-6-carboxylic acid], the IC50 (in general, the concentration needed to halve the response being measured) was below 1 µM.

Regarding `CCOc1ccccc1NC(=O)N(C)c1cc2oc(=O)c(C(=O)O)cc2s1` [Compound 2.010, 2-(3-(2-ethoxyphenyl)-1-methylureido)-5-oxo-5H-thieno[3,2-b]pyran-6-carboxylic acid], the IC50 is below 1 µM.

As for `CN(C(=O)Nc1cccc(C(F)(F)F)c1)c1cc2oc(=O)c(C(=O)O)cc2s1` [Compound 2.011, 2-(1-methyl-3-(3-(trifluoromethyl)phenyl)ureido)-5-oxo-5H-thieno[3,2-b]pyran-6-carboxylic acid], the IC50 is below 1 µM.

As for `CN(C(=O)Nc1ccc(C(F)(F)F)cc1)c1cc2oc(=O)c(C(=O)O)cc2s1` [Compound 2.012, 2-(1-methyl-3-(4-(trifluoromethyl)phenyl)ureido)-5-oxo-5H-thieno[3,2-b]pyran-6-carboxylic acid], the IC50 was below 1 µM.

Take `COc1ccc(OC)c(NC(=O)N(C)c2cc3oc(=O)c(C(=O)O)cc3s2)c1` [Compound 2.013, 2-(3-(2,5-dimethoxyphenyl)-1-methylureido)-5-oxo-5H-thieno[3,2-b]pyran-6-carboxylic acid]: the concentration for half-maximal inhibition (IC50) was below 1 µM.

Regarding `COc1ccc(NC(=O)N(C)c2cc3oc(=O)c(C(=O)O)cc3s2)c(OC)c1` [Compound 2.014, 2-(3-(2,4-dimethoxyphenyl)-1-methylureido)-5-oxo-5H-thieno[3,2-b]pyran-6-carboxylic acid], the IC50 is below 1 µM.

In turn, `COc1cc(F)ccc1NC(=O)N(C)c1cc2oc(=O)c(C(=O)O)cc2s1` [Compound 2.015, 2-(3-(4-fluoro-2-methoxyphenyl)-1-methylureido)-5-oxo-5H-thieno[3,2-b]pyran-6-carboxylic acid] displayed an IC50 below 1 µM.

In turn, `COc1cc(NC(=O)N(C)c2cc3oc(=O)c(C(=O)O)cc3s2)ccc1F` [Compound 2.016, 2-(3-(4-fluoro-3-methoxyphenyl)-1-methylureido)-5-oxo-5H-thieno[3,2-b]pyran-6-carboxylic acid] yielded an IC50 below 1 µM.

`CCOc1cc(NC(=O)N(C)c2cc3oc(=O)c(C(=O)O)cc3s2)ccc1F` [Compound 2.017, 2-(3-(3-ethoxy-4-fluorophenyl)-1-methylureido)-5-oxo-5H-thieno[3,2-b]pyran-6-carboxylic acid] displayed an IC50 below 1 µM.

`CN(C(=O)Nc1ccc(OC(F)(F)F)cc1)c1cc2oc(=O)c(C(=O)O)cc2s1` [Compound 2.019, 2-(1-methyl-3-(4-(trifluoromethoxy)phenyl)ureido)-5-oxo-5H-thieno[3,2-b]pyran-6-carboxylic acid] displayed an IC50 below 1 µM.

Compound `CN(C(=O)N[C@H]1CC[C@H](C)CC1)c1cc2oc(=O)c(C(=O)O)cc2s1` [Compound 2.020, 2-(1-methyl-3-((1r,4r)-4-methylcyclohexyl)ureido)-5-oxo-5H-thieno[3,2-b]pyran-6-carboxylic acid] yielded an IC50 below 1 µM.

The compound `CCOc1ccc(NC(=O)N(C)c2cc3oc(=O)c(C(=O)O)cc3s2)cc1` [Compound 2.021, 2-(3-(4-ethoxyphenyl)-1-methylureido)-5-oxo-5H-thieno[3,2-b]pyran-6-carboxylic acid] yielded an IC50 below 1 µM.

As for `COc1cc(NC(=O)N(C)c2cc3oc(=O)c(C(=O)O)cc3s2)cc(OC)c1` [Compound 2.022, 2-(3-(3,5-dimethoxyphenyl)-1-methylureido)-5-oxo-5H-thieno[3,2-b]pyran-6-carboxylic acid], the IC50 is below 1 µM.

On to `CN(C(=O)Nc1ccc(O)cc1)c1cc2oc(=O)c(C(=O)O)cc2s1` [Compound 2.023, 2-(3-(4-hydroxyphenyl)-1-methylureido)-5-oxo-5H-thieno[3,2-b]pyran-6-carboxylic acid], for which the IC50 is below 1 µM.

`CN(C(=O)Nc1ccccc1F)c1cc2oc(=O)c(C(=O)O)cc2s1` [Compound 2.024, 2-(3-(2-fluorophenyl)-1-methylureido)-5-oxo-5H-thieno[3,2-b]pyran-6-carboxylic acid] returned an IC50 below 1 µM.

On to `CN(C(=O)Nc1cccc(F)c1)c1cc2oc(=O)c(C(=O)O)cc2s1` [Compound 2.025, 2-(3-(3-fluorophenyl)-1-methylureido)-5-oxo-5H-thieno[3,2-b]pyran-6-carboxylic acid], for which the half-maximal inhibitory concentration (IC50) was below 1 µM.

Compound `COc1ccc(NC(=O)N(C)c2cc3oc(=O)c(C(=O)O)cc3s2)cc1C` [Compound 2.026, 2-(3-(4-methoxy-3-methylphenyl)-1-methylureido)-5-oxo-5H-thieno[3,2-b]pyran-6-carboxylic acid] gave an IC50 below 1 µM.

In the case of `CN(C(=O)NC1CCCC1)c1cc2oc(=O)c(C(=O)O)cc2s1` [Compound 2.027, 2-(3-cyclopentyl-1-methylureido)-5-oxo-5H-thieno[3,2-b]pyran-6-carboxylic acid], the IC50 was below 1 µM.

As for `CN(C(=O)c1ccc(-c2ccccc2)cc1)c1cc2oc(=O)c(C(=O)O)cc2s1` [Compound 2.028, 2-(N-methyl-[1,1′-biphenyl]-4-carboxamido)-5-oxo-5H-thieno[3,2-b]pyran-6-carboxylic acid], the IC50 is below 1 µM.

Compound `CN(C(=O)c1ccc2cc(F)ccc2c1)c1cc2oc(=O)c(C(=O)O)cc2s1` [Compound 2.029, 2-(6-fluoro-N-methyl-2-naphthamido)-5-oxo-5H-thieno[3,2-b]pyran-6-carboxylic acid] returned an IC50 below 1 µM.

In the case of `CN(C(=O)c1cccc(-c2ccccc2)c1)c1cc2oc(=O)c(C(=O)O)cc2s1` [Compound 2.030, 2-(N-methyl-[1,1′-biphenyl]-3-carboxamido)-5-oxo-5H-thieno[3,2-b]pyran-6-carboxylic acid], the IC50 was below 1 µM.

For `CN(C(=O)c1cccc(-c2ccc(F)cc2)c1)c1cc2oc(=O)c(C(=O)O)cc2s1` [Compound 2.031, 2-(4′-fluoro-N-methyl-[1,1′-biphenyl]-3-carboxamido)-5-oxo-5H-thieno[3,2-b]pyran-6-carboxylic acid], the IC50 was below 1 µM.

As to `CN(C(=O)c1ccccc1-c1ccc(F)cc1)c1cc2oc(=O)c(C(=O)O)cc2s1` [Compound 2.032, 2-(4′-fluoro-N-methyl-[1,1′-biphenyl]-2-carboxamido)-5-oxo-5H-thieno[3,2-b]pyran-6-carboxylic acid], the IC50 was below 1 µM.

In turn, `Cc1ccc(NC(=O)N(C)c2cc3oc(=O)c(C(=O)O)cc3s2)cc1` [Compound 2.033, 2-(1-methyl-3-(p-tolyl)ureido)-5-oxo-5H-thieno[3,2-b]pyran-6-carboxylic acid] yielded an IC50 below 1 µM.

As to `CN(C(=O)Nc1cccc(Cl)c1)c1cc2oc(=O)c(C(=O)O)cc2s1` [Compound 2.034, 2-(3-(3-chlorophenyl)-1-methylureido)-5-oxo-5H-thieno[3,2-b]pyran-6-carboxylic acid], the IC50 was below 1 µM.

For `Cc1ccccc1NC(=O)N(C)c1cc2oc(=O)c(C(=O)O)cc2s1` [Compound 2.035, 2-(1-methyl-3-(o-tolyl)ureido)-5-oxo-5H-thieno[3,2-b]pyran-6-carboxylic acid], the IC50 was below 1 µM.

In the case of `Cc1cccc(NC(=O)N(C)c2cc3oc(=O)c(C(=O)O)cc3s2)c1` [Compound 2.036, 2-(1-methyl-3-(m-tolyl)ureido)-5-oxo-5H-thieno[3,2-b]pyran-6-carboxylic acid], the IC50 is below 1 µM.
